Consider 31 molecules from the RepoRT retention time repository.

The data set is described as follows: Waters ACQUITY UPLC BEH C18, 100 × 2.1 mm, 1.7 µm, 40 °C, 0.3 to 0.4 mL/min, estimated dead time 0.63 min; A: water + 0.1% formic acid; B: methanol + 0.1% formic acid; gradient (min/%B) 0/0.5 0.1/0.5 10/80 10.1/99.5 12/99.5. The following applies: stereoisomer not certain.
With `CC1=C(CCC(C)COC2OC(CO)C(O)C(O)C2O)OC2CC3C4CC=C5CC(O)CC(OC6OCC(O)C(O)C6OC6OC(C)C(O)C(O)C6O)C5(C)C4CCC3(C)C12` (stereo unspecified), the LC retention time was 5.59 min.

As for `COc1cc(C(=O)OC2CC3CCC(C2)N3)ccc1O` (stereo unspecified), the LC retention time was 3.27 min.

Take `CC(C)=CCc1c(O)c(-c2cc(-c3cc(=O)c4c(O)cc(O)cc4o3)ccc2O)c2oc(-c3ccc(O)cc3)cc(=O)c2c1O`: the LC retention time was 7.57 min. With `COc1cc(-c2cc(=O)c3c(O)c(C4OC(CO)C(O)C(O)C4OC4OC(CO)C(O)C(O)C4O)c(O)cc3o2)ccc1O` (stereo unspecified) the figure was 3.87 min; with `CCC(C)C(N)C(=O)NC(CC(=O)O)C(=O)O` (stereo unspecified), 1.87 min; with `COc1cc(C=CC(=O)NCCCCN=C(N)N)ccc1O`, 3.22 min. With `NC(CCCCNC(=O)C=Cc1ccc(O)c(O)c1)C(=O)O` (stereo unspecified) the figure was 2.61 min; with `CCN1CC2(COC(=O)c3ccccc3N)CCC(OC)C34C5CC6C(OC)CC(O)(C5C6OC)C(O)(C(OC)C23)C14` (stereo unspecified), 5.5 min; with `N#CC(OC1OC(COC2OC(CO)C(O)C(O)C2O)C(O)C(O)C1O)c1ccccc1` (stereo unspecified), 3.32 min. As for `COc1cc(C=CC(=O)OCC2OC(OC3C(c4c(O)cc5oc(-c6ccc(O)c(OC)c6)cc(=O)c5c4O)OC(CO)C(O)C3O)C(O)C(O)C2O)ccc1O` (stereo unspecified), the LC retention time was 4.19 min.

For `CC(C)=CCCC(C)(O)C1CCC2(C)C1C(O)CC1C3(C)CCC(OC4OC(CO)C(O)C(O)C4OC4OC(CO)C(O)C(O)C4O)C(C)(C)C3CCC12C` (stereo unspecified), the LC retention time is 8.2 min. Turning to `CC(C)CC(NC(=O)CN)C(=O)O` (stereo unspecified), the LC retention time was 2.5 min. Next, `CC1OC(Oc2cc(O)c3c(=O)c(O)c(-c4ccc(O)cc4)oc3c2)C(O)C(O)C1O` (stereo unspecified): 5.28 min; `COCC=C1CN2C3CC45C(=Nc6c(OC)cc(OC)c(OC)c64)OCC3C1CC25` (stereo unspecified): 3.82 min; `COc1cc(O)c2c(c1)OC(c1ccc(O)c(-c3c(O)cc(O)c4c(=O)cc(-c5ccc(O)cc5)oc34)c1)CC2=O` (stereo unspecified): 5.58 min. Next, `Cc1ncc(COC2OC(CO)C(O)C(O)C2O)c(CO)c1O` (stereo unspecified): 1.7 min; `CN1C2CCC1CC(OC(=O)C(O)c1ccccc1)C2` (stereo unspecified): 3.15 min. Next, `O=c1c(-c2ccc(O)cc2)coc2cc(OC3OC(CO)C(O)C(O)C3O)ccc12` (stereo unspecified): 3.65 min.

With `CC(C)CC1NC(=O)C2CCCN2C1=O` (stereo unspecified), the LC retention time was 4.03 min. Next, `CC(=O)NC(CC(C)C)C(=O)O` (stereo unspecified): 3.81 min; `COc1ccc2c3c([nH]c2c1)C1CC2C(=CCO)CN1C1C3OCC21` (stereo unspecified): 3.6 min.

Take `OCC1OC(Oc2cc3c(O)cc(O)cc3[o+]c2-c2cc(O)c(O)c(O)c2)C(OC2OCC(O)C(O)C2O)C(O)C1O` (stereo unspecified): the LC retention time is 2.65 min.

In the case of `NC(CCC(=O)NCC(=O)O)C(=O)O` (stereo unspecified), the LC retention time is 1.67 min. For `O=C(CCc1ccc(O)cc1)c1c(O)c(C2OC(CO)C(O)C(O)C2O)c(O)c(C2OC(CO)C(O)C(O)C2O)c1O` (stereo unspecified), the LC retention time was 4.01 min. With `COc1cc(C=CC(=O)NCCCCC(N)C(=O)O)ccc1O` (stereo unspecified) the figure was 3.08 min; with `CC1OC(Oc2cc(O)c3c(=O)c(OC4OC(CO)C(O)C(O)C4O)c(-c4ccc(O)cc4)oc3c2)C(O)C(O)C1O` (stereo unspecified), 3.7 min; with `CS(=O)C=CCCN=C=S` (stereo unspecified), 3.77 min. For `COc1ccc(C(C)=O)c(O)c1`, the LC retention time is 6.57 min.

With `CS(=O)CCCCCCCN` (stereo unspecified), the LC retention time was 2.08 min. With `COc1cc(O)c2c(=O)c(OC3OC(COC4OC(C)C(O)C(OC5OC(C)C(O)C(O)C5O)C4O)C(O)C(O)C3O)c(-c3ccc(O)c(O)c3)oc2c1` (stereo unspecified) the figure was 4.79 min; with `CC1OC(OCC2OC(Oc3c(-c4ccc(O)c(O)c4)oc4cc(O)cc(O)c4c3=O)C(OC3OCC(O)C(O)C3O)C(O)C2O)C(O)C(O)C1O` (stereo unspecified), 3.65 min.
